Measured values: ChEMBL document CHEMBL1201862, “PubChem BioAssay data set” (2004)
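Dose response: 5 concentrations. Exposure: 48 h. Format: 96-well plates. Endpoint: linear interpolation; highest concentration if not reached. GI50: concentration for 50% inhibition of growth.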 Active and inactive are the calls of the source. Cut-off read from the data, not from the text of the source: active = GI50 up to about 1.1 µM and inactive = higher.

Legend:
Assay in all cases: NCI tumour cell line growth inhibition, 48 h
DLD-1 = test system: DLD-1
HOP-18 = test system: HOP-18
LXFL 529 = test system: LXFL 529
M19-MEL = test system: M19-MEL
RXF 631 = test system: RXF 631
SNB-78 = test system: SNB-78
XF498 = test system: XF498

Measured: GI50

CCOc1cc(/C=C/C=C/c2ccc(N(C)C)cc2)[s+]c2ccccc12
inactive: DLD-1 23.9 µM | HOP-18 99.1 µM | LXFL 529 12.3 µM | M19-MEL 26.2 µM | RXF 631 33 µM | SNB-78 25.5 µM | XF498 20.8 µM

O=C1CCC2(c3ccc(Cl)cc3)Nc3ccccc3N12 (stereo not drawn)
inactive: DLD-1 71 µM | HOP-18 50.2 µM | LXFL 529 47 µM | M19-MEL 69 µM | RXF 631 > 100 µM | SNB-78 > 100 µM | XF498 77.1 µM

Cc1ccccc1C(=O)c1ccccc1O
inactive: DLD-1 > 100 µM | HOP-18 > 100 µM | LXFL 529 > 100 µM | M19-MEL > 100 µM | RXF 631 > 100 µM | SNB-78 > 100 µM | XF498 > 100 µM

O=C1C(=O)N(c2ccc(Cl)c(Cl)c2)C(=O)C(=O)C1c1nc2ccccc2o1
inactive: DLD-1 59.2 µM | LXFL 529 93.8 µM | M19-MEL 58.7 µM | RXF 631 43.5 µM | SNB-78 66.4 µM | XF498 51.5 µM

Cc1ccc(C2CC(c3ccc([N+](=O)[O-])cc3)=Nc3ccccc3S2)cc1 (stereo not drawn)
inactive: DLD-1 25.5 µM | HOP-18 48.4 µM | LXFL 529 12.1 µM | M19-MEL 18.6 µM | RXF 631 24.5 µM | XF498 19 µM
